Consider six molecules from patent US12145944B2, “Imidazopyrimidines as EED inhibitors and the use thereof” (THE REGENTS OF THE UNIVERSITY OF MICHIGAN, priority 2019, dated 2024).

For experiment [1], the system named is Pfeiffer cell line. Briefly: Anti-proliferative activity, Pfeiffer cell line, 7 day treatment. The class given is cell-based. Conditions: for pIC50: 7 day treatment, read-out: Pfeiffer Cell line. Summed up: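 Cells seeded at 2 000-3 000 per well were treated with serially diluted compounds for 7 days at 37° C, 5% CO2. Growth was measured by WST-8 assay read at 450 nm after 1-4 h reagent incubation. Readings were normalized to DMSO-treated cells and IC50 values derived by nonlinear regression.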

Experiment [2] has as its target T1, EED (1-441)-His protein (Homo sapiens, UniProt O75530).
T1 construct: 20 nM EED (1-441)-His protein
Description: EED-H3K27Me3 peptide competition binding assay by AlphaScreen. The following applies: EED Alpha screen binding assay, read-out: Alpha screen. The protocol:
“N/A” stands for “not assessed”.
EED-H3K27Me3 peptide competition binding assay by AlphaScreen (α-screen)
2.5 μl of solutions containing 20 nM biotin-H3K27Me3 (19-33) peptide in the buffer (25 mM HEPES, pH 8, 0.02% Tween-20, 0.5% BSA) were added to the wells and then incubated with compound for 30 min. […] Then 10 μl of the detection beads mix was added to the plate and incubated in the dark at RT for 1 h. The final concentration of donor and acceptor beads was 10 μg/ml for each. […] The data were then fit to a dose response equation to get the IC50 values.

The subject of experiment [3] is KARPAS422 human B cell lymphoma cell. Description: Cell proliferation, KARPAS422, 7 day treatment (WST-8). The class given is cell-based. The following applies: for pIC50: 7 day treatment, read-out: Karpas Cell line. The gist of the method:
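KARPAS422 cells seeded at 2 000-3 000 cells/well and exposed to serially diluted compounds for 7 days at 37 °C, 5% CO2. Growth measured by WST-8 (1-4 h, absorbance 450 nm). Readings normalized to DMSO-treated cells; IC50 from nonlinear regression.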

Where [4] appears, read: Homo sapiens, 168 h, anti-proliferative IC50 class, Pfeiffer cell line.
The mark [5] stands for this setting: Homo sapiens, KARPAS-422, 168 h, anti-proliferative IC50 class, Karpas 422 cell line.

pIC50: −log10 of the molar value. Like-named read-outs stand apart in the source and are kept apart here.

T1 sequence (O75530 whole entry): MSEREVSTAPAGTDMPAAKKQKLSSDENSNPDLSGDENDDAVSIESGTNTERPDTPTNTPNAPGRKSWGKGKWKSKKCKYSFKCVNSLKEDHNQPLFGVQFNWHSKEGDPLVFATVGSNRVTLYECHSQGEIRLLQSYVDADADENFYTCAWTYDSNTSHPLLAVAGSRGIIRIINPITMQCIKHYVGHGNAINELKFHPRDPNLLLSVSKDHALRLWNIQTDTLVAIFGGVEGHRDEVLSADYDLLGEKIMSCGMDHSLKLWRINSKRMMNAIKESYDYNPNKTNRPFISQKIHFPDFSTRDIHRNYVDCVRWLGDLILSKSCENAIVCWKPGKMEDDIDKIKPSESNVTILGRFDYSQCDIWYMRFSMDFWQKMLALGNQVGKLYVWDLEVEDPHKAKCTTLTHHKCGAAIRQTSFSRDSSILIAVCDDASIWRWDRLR

Turning to `Cc1ncccc1-c1cc(C#N)c(NCc2c(F)ccc3c2CCO3)n2cnc(S(C)(=O)=O)c12` [E 27, 5-(((5-fluoro-2,3-dihydrobenzofuran-4-yl)methyl)amino)-8-(2-methylpyridin-3-yl)-1-(methylsulfonyl)imidazo[1,5-a]pyridine-6-carbonitrile], the pIC50 in experiment [1] (setting [4]) was over 8.00; in experiment [2] (IC50 class), 7.00 to 8.00; in experiment [3] (setting [5]) it was 7.00 to 8.00.

Take `CC(C)N1Cc2cc(C(F)(F)F)ncc2-c2cnc(NCc3c(F)ccc4c3CCO4)n3cnc(c23)C1=O` [E 40, 12-(((5-fluoro-2,3-dihydrobenzofuran-4-yl)methyl)amino)-4-isopropyl-7-(trifluoromethyl)-4,5-dihydro-3H-2,4,8,11,12a-pentaazabenzo[4,5]cycloocta[1,2,3-cd]inden-3-one]: the pIC50 in experiment [1] (setting [4]), in experiment [2] (IC50 class) and in experiment [3] (setting [5]) was over 8.00 throughout.

Turning to `O=C1c2ncn3c(NCc4c(F)ccc5c4CCO5)ncc(c23)-c2ccc(C3COC3)nc2CN1CC(F)(F)F` [E 51, 12-(((5-fluoro-2,3-dihydrobenzofuran-4-yl)methyl)amino)-7-(oxetan-3-yl)-4-(2,2,2-trifluoroethyl)-4,5-dihydro-3H-2,4,6,11,12a-pentaazabenzo[4,5]cycloocta[1,2,3-cd]inden-3-one], the pIC50 in experiment [1] (setting [4]), in experiment [2] (IC50 class) and in experiment [3] (setting [5]) was over 8.00 in each case.

Consider `O=C1Nc2ncccc2-c2cnc(NCc3c(F)ccc4c3CCO4)n3cnc1c23` [compound 4, 11-(((5-fluoro-2,3-dihydrobenzofuran-4-yl)methyl)amino)-2,4,5,10,11a-pentaazadibenzo[cd,f]azulen-3(4H)-one], for which the pIC50 is under 7.00 in experiment [1] (Homo sapiens, 168 h, anti-proliferative IC50, Pfeiffer cell line); under 8.00 in experiment [2]; under 7.00 in experiment [3] (Homo sapiens, KARPAS-422, 168 h, anti-proliferative IC50, Karpas 422 cell line).

Consider `O=C1c2ncn3c(NCc4c(F)ccc5c4CCO5)ncc(c23)-c2sccc2CN1C1CC1` [compound 87, 4-cyclopropyl-11-(((5-fluoro-2,3-dihydrobenzofuran-4-yl)methyl)amino)-4,5-dihydro-3H-8-thia-2,4,10,11a-tetraazacyclopenta[4,5]cycloocta[1,2,3-cd]inden-3-one], for which the pIC50 was 10.74 in experiment [1] (anti-proliferative IC50, Pfeiffer cell line); 7.95 in experiment [2]; 8.06 in experiment [3] (anti-proliferative IC50, Karpas 422 cell line).

As for `CS(=O)(=O)c1ncn2c(NCc3c(F)ccc4c3CCO4)ncc(-c3ccc(C(F)(F)F)nc3)c12` [compound 102, N-((5-fluoro-2,3-dihydrobenzofuran-4-yl)methyl)-1-(methylsulfonyl)-8-(6-(trifluoromethyl)pyridin-3-yl)imidazo[1,5-c]pyrimidin-5-amine], the IC50 in experiment [1] (Homo sapiens, Pfeiffer, 168 h, read-out: Pfeiffer Cell line (nM)) was determined as 0.59 nM; in experiment [3] (Homo sapiens, KARPAS-422, 168 h, read-out: Karpas Cell line (nM)), 0.94 nM. Further, the pIC50 in experiment [2] was 9.21.
